From patent publication US9187464B2, “TRPV4 antagonists” (GlaxoSmithKline Intellectual Property (No. 2) Limited, priority 2011, dated 2015)

Target: T1, human TRPV4 (Homo sapiens, UniProt Q9HBA0)
T1 construct: expressed in transfected cells; host or cells: HEK-293-MSR-II cells transduced with 1% BacMam virus
Assay: Ligand-gated assay (Fluo4 calcium, FLIPR; inhibition of agonist-induced activation)
Assay type: cell-based
Conditions: HEK-293-MSR-II cells transduced with BacMam human TRPV4; agonist at EC80
Procedure: TRP channel activation/opening results in an influx of divalent and monovalent cations including calcium. The resulting changes in intracellular calcium were monitored using a calcium selective fluorescent dye Fluo4 (MDS Analytical Technologies). Dye loaded cells were initially exposed to test compound to verify a lack of agonist activity. Cells were subsequently activated by addition of an agonist and inhibition of the agonist-induced activation was recorded. Human embryonic kidney 293 cells stably expressing the macrophage scavenger receptor class II (HEK-293-MSR-II) and transduced with 1% BacMam (J. P. Condreay, S. M. Witherspoon, W. C. Clay and T. A. Kost, Proc Natl Acad Sci 96 (1999), pp. 127-132) virus expressing the human TRPV4 gene were plated at 15000 cells/well in a volume of 50 μL in a 384 well poly-D lysine coated plate. Cells were incubated for 24 hours at 37 degrees and 5% CO2. Media was then aspirated using a Tecan Plate-washer and replaced with 20 μL of dye loading buffer: HBSS, 500 uM Brilliant Black (MDS Analytical Technologies), 2 uM Fluo-4. Dye loaded plates were then incubated in the dark at room temperature for 1-1.5 hours. 10 μL of test compound diluted in HBSS (HBSS with 1.5 mM Calcium Chloride, 1.5 mM Magnesium Chloride and 10 mM HEPES. pH 7.4), +0.01% Chaps was added to the plate, incubated for 10 min at room temperature in the dark and then 10 μL of agonist was added at a final concentration equal to the agonist EC80. Calcium release was measured using the FLIPRtetra (MDS Analytical Technologies) or FLIPR384 (MDS Analytical Technologies).
IC50 between 0.1-10 nM (+++), >10-50 nM (++), >50-500 nM (+).

T1 sequence (Q9HBA0 whole entry): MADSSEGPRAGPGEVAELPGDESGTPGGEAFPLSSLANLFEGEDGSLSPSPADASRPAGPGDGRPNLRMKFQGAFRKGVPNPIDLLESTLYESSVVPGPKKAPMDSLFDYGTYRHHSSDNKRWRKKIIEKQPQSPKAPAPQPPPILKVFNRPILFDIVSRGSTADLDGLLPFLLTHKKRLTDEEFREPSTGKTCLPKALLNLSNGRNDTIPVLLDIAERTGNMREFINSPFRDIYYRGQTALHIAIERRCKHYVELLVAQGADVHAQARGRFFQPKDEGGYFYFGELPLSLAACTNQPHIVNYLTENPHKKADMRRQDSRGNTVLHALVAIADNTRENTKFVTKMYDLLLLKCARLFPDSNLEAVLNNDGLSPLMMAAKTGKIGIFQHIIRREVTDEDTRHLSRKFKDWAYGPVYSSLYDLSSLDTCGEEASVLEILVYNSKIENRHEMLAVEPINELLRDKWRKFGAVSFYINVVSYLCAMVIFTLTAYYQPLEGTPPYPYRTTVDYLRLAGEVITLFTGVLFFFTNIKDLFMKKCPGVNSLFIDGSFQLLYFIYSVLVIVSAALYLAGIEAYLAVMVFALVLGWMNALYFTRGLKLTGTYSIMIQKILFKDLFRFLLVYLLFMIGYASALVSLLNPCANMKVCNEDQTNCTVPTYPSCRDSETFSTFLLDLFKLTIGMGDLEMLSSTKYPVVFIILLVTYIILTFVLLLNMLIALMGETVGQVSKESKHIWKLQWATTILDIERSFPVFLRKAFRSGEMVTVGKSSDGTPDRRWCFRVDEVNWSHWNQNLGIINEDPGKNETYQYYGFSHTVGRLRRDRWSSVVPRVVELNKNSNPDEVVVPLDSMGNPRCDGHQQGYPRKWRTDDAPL

IC50 [µM] | SMILES
0.05 to 0.5 | CC(C)(CO)c1cc(N2C[C@@]3(CCC[C@](C)(Cn4cnc5ccc(C#N)cc54)C3)OC2=O)on1 [Example 21, 1-(((5S,7S)-3-(3-(1-Hydroxy-2-methylpropan-2-yl)isoxazol-5-yl)-7-methyl-2-oxo-1-oxa-3-azaspiro[4.5]decan-7-yl)methyl)-1H-benzo[d]imidazole-6-carbonitrile]
0.0001 to 0.01 | COc1cc(OC)c(N2C[C@@]3(CCC[C@](C)(Cn4cnc5ccc(C#N)cc54)C3)OC2=O)cn1 [Example 22, 1-(((5S,7S)-3-(4,6-Dimethoxyipyridin-3-yl)-7-methyl-2-oxo-1-oxa-3-azasbiro[4.5]decan-7-yl)methyl)-1H-benzo[d]imidazole-6-carbonitrile]
0.01 to 0.05 | CCOc1cc(C)c(N2C[C@@]3(CCC[C@H](Cn4cnc5ccc(C#N)cc54)C3)OC2=O)cn1 [Example 23, 1-(((5S,7S)-3-(6-Ethoxy-4-methylpyridin-3-yl)-2-oxo-1-oxa-3-azasbiro[4.5]decan-7-yl)methyl)-1H-benzo[d]imidazole-6-carbonitrile]
0.0001 to 0.01 | CCOc1cc(C)c(N2C[C@@]3(CCC[C@](C)(Cn4cnc5ccc(C#N)cc54)C3)OC2=O)nn1 [Example 24, 1-(((5S,7S)-3-(6-Ethoxy-4-methylpyridazin-3-yl)-7-methyl-2-oxo-1-oxa-3-azaspiro[4.5]decan-7-yl)methyl)-1H-benzo[d]imidazole-6-carbonitrile]
0.0001 to 0.01 | C[C@]1(Cn2cnc3ccc(C#N)cc32)CCC[C@@]2(CN(c3cnc(C(F)(F)F)nc3)C(=O)O2)C1 [Example 25, 1-(((5S,7S)-7-Methyl-2-oxo-3-(2-(trifluoromethyl)pyrimidin-5-yl)-1-oxa-3-azaspiro[4.5]decan-7-yl)methyl)-1H-benzo[d]imidazole-6-carbonitrile]
0.05 to 0.5 | C[C@]1(Cn2cnc3ccc(C#N)cc32)CCC[C@@]2(CN(c3ncccc3C(F)(F)F)C(=O)O2)C1 [Example 26, 1-(((5S,7S)-7-Methyl-2-oxo-3-(3-(trifluoromethyl)pyridin-2-yl)-1-oxa-3-azaspiro[4.5]decan-7-yl)methyl)-1H-benzo[d]imidazole-6-carbonitrile]
0.0001 to 0.01 | N#Cc1ccc2ncn(C[C@H]3CCC[C@]4(C3)CN(Cc3csc5ccc(Cl)cc35)C(=O)O4)c2c1 [Example 27, 1-({(5S,7S)-3-[(5-Chloro-1-benzothien-3-yl)methyl]-2-oxo-1-oxa-3-azaspiro[4.5]dec-7-yl}methyl)-1H-benzimidazole-6-carbonitrile]
0.0001 to 0.01 | CCOC(C)c1noc(C(C)(C)CN2C[C@@]3(CCC[C@H](Cn4cnc5ccc(C#N)cc54)C3)OC2=O)n1 (stereo partly drawn) [Example 28, 1-{[(5S,7S)-3-(2-{3-[1-(Ethyloxy)ethyl]-1,2,4-oxadiazol-5-yl}-2-methylpropyl)-2-oxo-1-oxa-3-azaspiro[4.5]dec-7-yl]methyl}-1H-benzimidazole-6-carbonitrile]
0.01 to 0.05 | Cc1ccc(N2C[C@@]3(CCC[C@](C)(Cn4cnc5ccc(C#N)cc54)C3)OC2=O)nc1 [Example 29, 1-{[(5S,7S)-7-methyl-3-(5-methyl-2-pyridinyl)-2-oxo-1-oxa-3-azaspiro[4.5]dec-7-yl]methyl}-1H-benzimidazole-6-carbonitrile]
0.01 to 0.05 | CC(C)c1cc(N2C[C@@]3(CCC[C@](C)(Cn4cnc5ccc(C#N)cc54)C3)OC2=O)on1 [Example 30, 1-({(5S,7S)-7-methyl-3-[3-(1-methylethyl)-5-isoxazolyl]-2-oxo-1-oxa-3-azaspiro[4.5]dec-7-yl}methyl)-1H-benzimidazole-6-carbonitrile]
0.0001 to 0.01 | CC(C)Cc1cc(N2C[C@@]3(CCC[C@](C)(Cn4cnc5ccc(C#N)cc54)C3)OC2=O)on1 [Example 31, 1-({(5S,7S)-7-methyl-3-[3-(2-methylpropyl)-5-isoxazolyl]-2-oxo-1-oxa-3-azaspiro[4.5]dec-7-yl}methyl)-1H-benzimidazole-6-carbonitrile]
0.01 to 0.05 | CCc1cc(N2C[C@@]3(CCC[C@](C)(Cn4cnc5ccc(C#N)cc54)C3)OC2=O)on1 [Example 33, 1-{[(5S,7S)-3-(3-ethyl-5-isoxazolyl)-7-methyl-2-oxo-1-oxa-3-azaspiro[4.5]dec-7-yl]methyl}-1H-benzimidazole-6-carbonitrile]
0.0001 to 0.01 | C[C@]1(Cn2cnc3ccc(C#N)cc32)CCC[C@@]2(CN(c3cc(C4CC4)no3)C(=O)O2)C1 [Example 34, 1-{[(5S,7S)-3-(3-cyclopropyl-5-isoxazolyl)-7-methyl-2-oxo-1-oxa-3-azaspiro[4.5]dec-7-yl]methyl}-1H-benzimidazole-6-carbonitrile]
0.01 to 0.05 | C[C@]1(Cn2cnc3ccc(C#N)cc32)CCC[C@@]2(CN(c3cc(-c4ccccc4)no3)C(=O)O2)C1 [Example 35, 1-{[(5S,7S)-7-methyl-2-oxo-3-(3-phenyl-5-isoxazolyl)-1-oxa-3-azaspiro[4.5]dec-7-yl]methyl}-1H-benzimidazole-6-carbonitrile]
0.05 to 0.5 | Cn1nc(C(C)(C)C)cc1N1C[C@@]2(CCC[C@](C)(Cn3cnc4ccc(C#N)cc43)C2)OC1=O [Example 36, 1-({(5S,7S)-3-[3-(1,1-dimethylethyl)-1-methyl-1H-pyrazol-5-yl]-7-methyl-2-oxo-1-oxa-3-azaspiro[4.5]dec-7-yl}methyl)-1H-benzimidazole-6-carbonitrile]
0.01 to 0.05 | C[C@]1(Cn2cnc3ccc(C#N)cc32)CCC[C@@]2(CN(c3cc(C(F)(F)F)no3)C(=O)O2)C1 [Example 37, 1-({(5S,7S)-7-methyl-2-oxo-3-[3-(trifluoromethyl)-5-isoxazolyl]-1-oxa-3-azaspiro[4.5]dec-7-yl}methyl)-1H-benzimidazole-6-carbonitrile]
0.01 to 0.05 | C[C@]1(Cn2cnc3ccc(C#N)cc32)CCC[C@@]2(CN(c3cc(C4(C#N)CC4)no3)C(=O)O2)C1 [Example 38, 1-({(5S,7S)-3-[3-(1-cyanocyclopropyl)-5-isoxazolyl]-7-methyl-2-oxo-1-oxa-3-azaspiro[4.5]dec-7-yl}methyl)-1H-benzimidazole-6-carbonitrile]
0.0001 to 0.01 | CC(C)(F)c1cc(N2C[C@@]3(CCC[C@](C)(Cn4cnc5ccc(C#N)cc54)C3)OC2=O)on1 [Example 39, 1-(((5S,7S)-3-(3-(2-fluoropropan-2-yl)isoxazol-5-yl)-7-methyl-2-oxo-1-oxa-3-azaspiro[4.5]decan-7-yl)methyl)-1H-benzo[d]imidazole-6-carbonitrile]
0.01 to 0.05 | C[C@]1(Cn2cnc3ccc(C#N)cc32)CCC[C@@]2(CN(c3cc(C4CCC4)no3)C(=O)O2)C1 [Example 40, 1-(((5S,7S)-3-(3-cyclobutylisoxazol-5-yl)-7-methyl-2-oxo-1-oxa-3-azaspiro[4.5]decan-7-yl)methyl)-1H-benzo[d]imidazole-6-carbonitrile]
0.0001 to 0.01 | Cc1c(C(C)(C)C)noc1N1C[C@@]2(CCC[C@](C)(Cn3cnc4ccc(C#N)cc43)C2)OC1=O [Example 41, 1-(((5S,7S)-3-(3-(tert-butyl)-4-methylisoxazol-5-yl)-7-methyl-2-oxo-1-oxa-3-azaspiro[4.5]decan-7-yl)methyl)-1H-benzo[d]imidazole-6-carbonitrile]
0.01 to 0.05 | CC(C)(C)c1coc(N2C[C@@]3(CCC[C@](C)(Cn4cnc5ccc(C#N)cc54)C3)OC2=O)n1 [Example 42, 1-(((5S,7S)-3-(4-(tert-butyl)oxazol-2-yl)-7-methyl-2-oxo-1-oxa-3-azaspiro[4.5]decan-7-yl)methyl)-1H-benzo[d]imidazole-6-carbonitrile]
0.01 to 0.05 | CC(C)(C)n1cc(N2C[C@@]3(CCC[C@](C)(Cn4cnc5ccc(C#N)cc54)C3)OC2=O)cn1 [Example 43, 1-(((5S,7S)-3-(1-(tert-butyl)-1H-pyrazol-4-yl)-7-methyl-2-oxo-1-oxa-3-azaspiro[4.5]decan-7-yl)methyl)-1H-benzo[d]imidazole-6-carbonitrile]
0.0001 to 0.01 | CC(C)(C)c1noc(N2C[C@@]3(CCC[C@](C)(Cn4cnc5ccc(C#N)cc54)C3)OC2=O)c1F [Example 44, 1-(((5S,7S)-3-(3-(tert-butyl)-4-fluoroisoxazol-5-yl)-7-methyl-2-oxo-1-oxa-3-azaspiro[4.5]decan-7-yl)methyl)-1H-benzo[d]imidazole-6-carbonitrile]
0.0001 to 0.01 | CC(F)(F)c1cc(N2C[C@@]3(CCC[C@](C)(Cn4cnc5ccc(C#N)cc54)C3)OC2=O)on1 [Example 45, 1-(((5S,7S)-3-(3-(1,1-difluoroethyl)isoxazol-5-yl)-7-methyl-2-oxo-1-oxa-3-azaspiro[4.5]decan-7-yl)methyl)-1H-benzo[d]imidazole-6-carbonitrile]
0.0001 to 0.01 | Cc1c(C(C)(C)C)noc1N1C[C@@]2(CCC[C@H](Cn3cnc4ccc(C#N)cc43)C2)OC1=O [Example 46, 1-(((5S,7S)-3-(3-(tert-butyl)-4-methylisoxazol-5-yl)-2-oxo-1-oxa-3-azaspiro[4.5]decan-7-yl)methyl)-1H-benzo[d]imidazole-6-carbonitrile]
